According to patent US7297523B2, “Human elongase genes and uses thereof” (Xenon Pharmaceuticals Inc., priority 2000, dated 2007):

Tests used:
ELG3/V5-His = biological target: T1, ELG3/V5-His (Homo sapiens, UniProt Q9NXB9); test: Elongation of [1-14C]20:5n-3 in microsomes of yeast expressing ELG3/V5-His; assay type: biochemical; conditions: for % conversion 24:5n-3 / % conversion 22:5n-3 / % conversion Total: substrate [1-14C]20:5n-3 7.2 μM; for % conversion 24:5n-3: control 5.0; for % conversion 22:5n-3: control 13.7; for % conversion Total: control 18.7
T1 construct: made in house; host or cells: Saccharomyces cerevisiae (INVSc1), microsomal fraction
T1 sequence (Q9NXB9 1-296): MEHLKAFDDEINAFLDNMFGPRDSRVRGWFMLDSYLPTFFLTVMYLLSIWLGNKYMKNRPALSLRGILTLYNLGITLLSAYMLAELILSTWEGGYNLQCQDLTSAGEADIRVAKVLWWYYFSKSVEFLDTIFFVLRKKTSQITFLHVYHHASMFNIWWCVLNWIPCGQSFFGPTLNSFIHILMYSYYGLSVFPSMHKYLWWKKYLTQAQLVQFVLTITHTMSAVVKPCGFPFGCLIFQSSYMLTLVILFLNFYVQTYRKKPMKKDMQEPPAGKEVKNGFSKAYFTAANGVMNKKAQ
Description: A sulphoxide derivative of S-propylbutylethylthiocarbamate (pebulate sulphoxide) was obtained from Zeneca Agrochemicals, UK, and dissolved in ethanol at a concentration of 5 mM.
A 51 culture of Saccharomyces cerevisiae transformed with pTh1017.1 encoding ELG3/V5-His was started with a cell density of approximately 3.2×10^5 cells/ml (O.D.600 0.4) using SC-U medium with 1% raffinose. After 8 h of incubation at 30° C. in an orbital shaker at 270 rpm, galactose was added to a final concentration of 2%. Yeast were incubated for an additional 12 h until they were harvested by centrifugation at 2060×g for 10 minutes at 4° C. and washed with water. The cell pellet was resuspended in ⅓ of its volume in a pH 7.2 isolation buffer (80 mM Hepes-KOH, 10 mM KCl, 320 mM sucrose, 2 mM PMSF and a protease inhibitor cocktail). The cell suspension was poured into a mortar containing liquid N2 and ground with sand using a ceramic pestle. The yeast powder was transferred to a conical test tube, to which ⅔ of the pellet volume of isolation buffer was added. The sand was removed by centrifugation at 228×g for 1 min and the suspension centrifuged at 10,000×g for 20 min to separate cell debris, nuclei and mitochondria. The supernatant was centrifuged at 106,000×g for 1.5 h to obtain the microsomal pellet, which was resuspended in storage buffer (80 mM Hepes-KOH, 10 mM KCl, 320 mM sucrose, 1 mM PMSF and a protease inhibitor cocktail) to a final protein concentration of 20 μg/μl. The protein concentration was measured by the method of Lowry et al. (1951, .J Biol. Chem., 193: 265-275) with bovine serum albumin as standard.
The activity of ELG3/V5-His was determined by measuring the conversion of [1-^14C]20:5n-3 to [1-^14C]22:5n-3 and [1-^14C]24:5n-3. Reactions were started by adding 500 μg of yeast microsomal protein to pre-incubated tubes containing 0.20 μCi of the substrate fatty acid at a final concentration of 7.2 μM in 0.25 ml of 80 mM Hepes-KOH (pH 7.2) with 43 mM MgCl2, 1.0 mM ATP,500 μM NADPH, 10 μM coenzyme A, 100 μM […] (as lithium salt) and pebulate sulphoxide at concentrations that ranged between 1 to 100 μM. The tubes were vortexed vigorously and after 30 min incubation at 37° C. in a shaking water bath, the reactions were stopped by the addition of 2 ml of 10% (w/v) KOH in ethanol. Lipids in the incubation mixture were saponified at 80° C. for 45 min under N2. The samples were then left in ice for 5 min before acidification with 750 μl of concentrated HCl. […] The fatty acid methyl esters were analyzed by HPLC as described in Example 19.
The enzyme activity was expressed in percent conversion of radiolabelled 20:5n-3 into its elongation products. Alternatively, it can be expressed in pmol of the fatty acids produced/mg microsomal protein/min.

rat liver elongase = test: Elongation of [1-14C]20:5n-3 in rat liver microsomes; assay type: biochemical; conditions: for % conversion 24:6n-3: delta-6-desaturation product of 24:5n-3, control 9.1; for % conversion 22:5n-3 / % conversion 24:5n-3 / % conversion Total: substrate [1-14C]20:5n-3; for % conversion 22:5n-3: control 11.6; for % conversion 24:5n-3: control 39.7; for % conversion Total: control 60.4
Description: Wistar rats under light halothane (15% in mineral oil) anesthesia were sacrificed by exsanguination during periods of high enzyme activity. Livers were immediately rinsed with cold 0.9% NaCl solution, weighed and minced with scissors. All procedures were performed at 4° C. unless specified-otherwise. Livers were homogenized in a solution (1:3 w/v) containing 0.25 M sucrose, 62 mM potassium phosphate buffer (pH 7.0), 0.15 M KCl, 1.5 mM N-acetylcysteine, 5 mM MgCl2, and 0.1 mM EDTA using 4 strokes of a Potter-Elvehjem tissue homogenizer. The homogenate was centrifuged at 10,400×g for 20 min to pellet mitochondria and cellular debris. The supernatant was filtered through a 3-layer cheesecloth and centrifuged at 105,000×g for 60 min. The microsomal pellet was gently resuspended in the same homogenization solution with a small glass/teflon homogenizer and stored at −80° C. The absence of mitochondrial contamination was enzymatically assessed as described elsewhere (Kilberg, M. S. and Christensen H. N., 1979, Biochemistry, 18: 1525-1530). The protein concentration was measured by the method of Lowry et al (1951, J. Biol. Chem., 193: 265-275) with bovine serum albumin as standard.
Reactions were performed using 500 μg of rat liver microsomal protein with the same concentrations of pebulate sulphoxide, radiolabelled fatty acid, conditions and procedures described in Example 21.
The enzyme activity was expressed in percent conversion of radiolabelled 20:5n-3 into its elongation and final delta-6-desaturation products (i.e., 22:5n-3, 24:5n-3 and 24:6n-3).

18:3n-6 = test: Elongation of [1-14C]18:3n-6 in yeast expressing human elongases (RP-HPLC); conditions: untagged elongase, 25 μM substrate; for Percent Elongation of 18:3n-6 to 20:3: product 20:3n-6
Description: (§1) For the expression of ELG1, ELG2, ELG3, ELG4, ELG5, ELG6 or ELG7 the yeast were transformed with pTh1009.1, pTh1014.1, pTh1015.1, pTh1021.1, pTh1018.1, pTh1041.1 or pTh1044.1, respectively. For the expression of ELG1/V5-His, ELG2/V5-His, ELG3/V5-His, ELG4/V5-His, ELG5/V5-His, ELG6/V5 -His or ELG7/V5-His the yeast were transformed with pTh1009.2, pTh1014.2, pTh1017.1, pTh1021.2, pTh1019.1, pTh1042.1 or pTh1045.1, respectively. Recombinant yeast cells were selected on SC-U medium.
(§2) Transformed yeast (approximately 3.2×10^6 cells/ml; O.D.600 0.4) were incubated in a 125 ml Erlenmeyer containing 10 ml of SC-U medium with 1% raffinose, 1% tergitol and 25 μM of the lithium salts of either [1-^14C]18:3n-3 (1 μCi), [1-^14C]18:3n-6 (1 μCi), [1-^14C]20:4n-6 (2 μCi), or [1-^14C]20:5n-3 (2 μCi). After 4 h incubation in an orbital incubator at 270 rpm and 30° C., cells reached the log phase and the transgene, expression was induced with galactose 30° C., cells reached the log phase and the transgene expression was induced with galactose (2% final concentration). The yeast were incubated for an additional 19 h and then harvested by centrifugation at 5000×g for 10 minutes at 4° C.
(§3) Cells were washed with Tris-HCl buffer (100 mM, pH 8.0) containing 0.1% BSA and total lipids were extracted as described below. The radioactivity from aliquots of the incubation medium, supernatant and cells was determined by liquid scintillation counting using a LS6500-Scintillation System (Beckman).
(§4) Alternatively, cells were resuspended in 1.5 ml of water and saponified with 2 ml of 10% KOH in ethanol. The total lipid extracts or the free fatty acids from the saponified samples were methylated using boron trifluoride in methanol at 90° C. for 30 min. The resultant methyl esters (FAME) were analyzed as described below.
(§5) Analyses of radiolabelled FAME were carried out on a Hewlett Packard 1090, series II chromatograph equipped with a diode array detector set at 205 nm, a radioisotope detector (model 171, Beckman, CA) with a solid scintillation cartridge (97% efficiency for ^14C-detection) and a reverse phase ODS (C-18) Beckman column (250 mm×4.6 mm i.d.; 5 μm particle size) attached to a pre-column with a μBondapak C-18 (Beckman) insert. FAME were separated isocratically with acetonitrile/water (95.5 v/v) at a flow rate of 1 ml/min and were identified by comparison with authentic standards. Alternatively, the eluted FAME were collected and the solvent evaporated. FAME were re-dissolved in hexane for further analysis by gas chromatography.
20:4n-6 = test: Elongation of [1-14C]20:4n-6 in yeast expressing human elongases (RP-HPLC); conditions: for Percent Elongation of 20:4n-6 to 22:4: product 22:4n-6
Description: as §1, §2, §3, §4, §5
18:3n-3 = test: Elongation of [1-14C]18:3n-3 in yeast expressing human elongases (RP-HPLC); conditions: for Percent Elongation of 18:3n-3 to 20:3: product 20:3n-3
Description: as §1, §2, §3, §4, §5
20:5n-3 = test: Elongation of [1-14C]20:5n-3 in yeast expressing human elongases (RP-HPLC); conditions: untagged elongase, 25 μM substrate
Description: as §1, §2, §3
Alternatively, cells were resuspended in 1.5 ml of water and saponified with 2 ml of 10% KOH in ethanol. The total lipid extracts or the free fatty acids from the saponified samples were methylated using boron trifluoride in methanol at 90° C. for 30 min. The resultant methyl esters (FAME) were analyzed as described below. […]

[1] = untagged elongase, 25 μM substrate

`CCCCN(CC)C(=O)[S+]([O-])CCC` (centres unmarked) [Pebulate sulphoxide, sulphoxide derivative of S-propylbutylethylthiocarbamate] was tested, and the “% conversion 24:5n-3” value (ELG3/V5-His; 1 μM) was 5.6%, the “% conversion 22:5n-3” value (ELG3/V5-His; 1 μM) was 13.8% and the “% conversion Total” value (ELG3/V5-His; 1 μM) was 19.4%. For the same molecule, the “% conversion 24:5n-3” value (ELG3/V5-His; 10 μM) was 6.6%, the “% conversion 22:5n-3” value (ELG3/V5-His; 10 μM) was 12.8% and the “% conversion Total” value (ELG3/V5-His; 10 μM) was 19.4%. For the same molecule, the “% conversion 24:5n-3” value (ELG3/V5-His; 50 μM) was 4.6%, the “% conversion 22:5n-3” value (ELG3/V5-His; 50 μM) was 11.3% and the “% conversion Total” value (ELG3/V5-His; 50 μM) was 15.9%. The “reduction of elongation (ELG3/V5-His activity)” value (ELG3/V5-His; 100 μM, 20:5n-3 as substrate) was “approximately 27%”, the “% conversion 24:5n-3” value (ELG3/V5-His; 100 μM) was 4.3% and the “% conversion 22:5n-3” value (ELG3/V5-His; 100 μM) was 9.4%. For the same molecule, the “% conversion Total” value (ELG3/V5-His; 100 μM) was 13.7%, the “% conversion 24:6n-3” value (rat liver elongase; 1 μM) was 9.6% and the “% conversion 22:5n-3” value (rat liver elongase; 1 μM) was 12.5%. For the same molecule, the “% conversion 24:5n-3” value (rat liver elongase; 1 μM) was 47.5%, the “% conversion Total” value (rat liver elongase; 1 μM) was 69.3% and the “% conversion 24:6n-3” value (rat liver elongase; 10 μM) was 10.9%. For the same molecule, the “% conversion 22:5n-3” value (rat liver elongase; 10 μM) was 12.5%, the “% conversion 24:5n-3” value (rat liver elongase; 10 μM) was 47.2% and the “% conversion Total” value (rat liver elongase; 10 μM) was 70.7%. For the same molecule, the “% conversion 24:6n-3” value (rat liver elongase; 50 μM) was 7.9%, the “% conversion 22:5n-3” value (rat liver elongase; 50 μM) was 12.2% and the “% conversion 24:5n-3” value (rat liver elongase; 50 μM) was 48.7%. For the same molecule, the “% conversion Total” value (rat liver elongase; 50 μM) was 68.8%, the “reduction of elongation (rat liver elongase activity)” value (rat liver elongase; 100 μM, 20:5n-3 as substrate) was “approximately 30%” and the “% conversion 24:6n-3” value (rat liver elongase; 100 μM) was 4.5%. For the same molecule, the “% conversion 22:5n-3” value (rat liver elongase; 100 μM) was 10.2%, the “% conversion 24:5n-3” value (rat liver elongase; 100 μM) was 28.0% and the “% conversion Total” value (rat liver elongase; 100 μM) was 42.7%.

B1: ELG4: human PUFA elongase (SEQ ID NO: 5) expressed in yeast from plasmid pTh1021.1 (protein)
chain: MAFSDLTSRTVHLYDNWIKDADPRVEDWLLMSSPLPQTILLGFYVYFVTSLGPKLMENRKPFELKKAMITYNFFIVLFSVYMCYEFVMSGWGIGYSFRCDIVDYSRSPTALRMARTCWLYYFSKFIELLDTIFFVLRKKNSQVTFLHVFHHTIMPWTWWFGVKFAAGGLGTFHALLNTAVHVVMYSYYGLSALGPAYQKYLWWKKYLTSLQLVQFVIVAIHISQFFFMEDCKYQFPVFACIIMSYSFMFLLLFLHFWYRAYTKGQRLPKTVKNGTCKNKDN
modifications: human
In the case of B1, the “Percent Elongation of 18:3n-6 to 20:3” value (18:3n-6) is reported as 20%, the “Percent Elongation of 18:3n-6 to 22:3” value (18:3n-6; product 22:3n-6) is reported as 4% and the “Percent Elongation of 20:4n-6 to 22:4” value (20:4n-6; V5-His tagged elongase) is reported as 12%. For the same molecule, the “Percent Elongation of 20:4n-6 to 22:4” value (20:4n-6; [1]) was 24%, the “Percent Elongation of 20:4n-6 to 24:4” value (20:4n-6; untagged elongase, 25 μM substrate, product 24:4n-6) was 2% and the “Percent Elongation of 18:3n-3 to 20:3” value (18:3n-3; [1]) was 10%. The “Percent Elongation of 18:3n-3 to 22:3” value (18:3n-3; untagged elongase, 25 μM substrate, product 22:3n-3) was 4%, the “Percent Elongation of 20:5n-3 to 22:5” value (20:5n-3; product 22:5n-3) was 15% and the “Percent Elongation of 20:5n-3 to 24:5” value (20:5n-3; product 24:5n-3) was 3%.

B2: ELG6: human PUFA elongase (SEQ ID NO: 9) expressed in yeast from plasmid pTh1041.1 (protein)
chain: MVTAMNVSHEVNQLFQPYNFELSKDMRPFFEEYWATSFPIALIYLVLIAVGQNYMKERKGFNLQGPLILWSFCLAIFSILGAVRMWGIMGTVLLTGGLKQTVCFINFIDNSTVKFWSWVFLLSKVIELGDTAFIILRKRPLIFIHWYHHSTVLVYTSFGYKNKVPAGGWFVTMNFGVHAIMYTYYTLKAANVKPPKMLPMLITSLQILQMFVGAIVSILTYIWRQDQGCHTTMEHLFWSFILYMTYFILFAHFFCQTYIRPKVKAKTKSQ
modifications: human
For B2, the “Percent Elongation of 18:3n-6 to 20:3” value (18:3n-6) was 2%, the “Percent Elongation of 18:3n-3 to 20:3” value (18:3n-3; V5-His tagged elongase) was 3% and the “Percent Elongation of 18:3n-3 to 20:3” value (18:3n-3; [1]) was 3%.

B3: ELG7: human PUFA elongase (SEQ ID NO: 12) expressed in yeast from plasmid pTh1044.1 (protein)
chain: MGLLDSEPGSVLNVVSTALNDTVEFYRWTWSIADKRVENWPLMQSPWPTLSISTLYLLFVWLGPKWMKDREPFQMRLVLIIYNFGMVLLNLFIFRELFMGSYNAGYSYICQSVDYSNNVHEVRIAAALWWYFVSKGVEYLDTVFFILRKKNNQVSFLHVYHHCTMFTLWWIGIKWVAGGQAFFGAQLNSFIHVIMYSYYGLTAFGPWIQKYLWWKRYLTMLQLIQFHVTIGHTALSLYTDCPFPKWMHWALIAYAISFIFLFLNFYIRTYKEPKKPKAGKTAMNGISANGVSKSEKQLMIENGKKQKNGKAKGD
modifications: human
B3 was tested, and the “Percent Elongation of 18:3n-3 to 20:3” value (18:3n-3; V5-His tagged elongase) was 4% and the “Percent Elongation of 18:3n-3 to 20:3” value (18:3n-3; [1]) was 5%.
